PMC6985109, “Cellular apoptosis and necrosis as therapeutic targets for novel Eugenol Tosylate Congeners against Candida albicans” (Scientific Reports, 2020)
Converted amounts (≈) assume the structure as drawn.

Experiments:
[1] = system: Candida albicans 4135; experiment: Broth microdilution antifungal susceptibility (MIC/MFC); assay type: cell-based; details: strain 4135, FLC resistant
Procedure: (§1) In this study, 10 clinical Candida albicans isolates, comprising of 5 fluconazole susceptible and 5 fluconazole resistant, were used. C. albicans SC5314 was also used as a control laboratory strain. Clinical strains used in this study were stored at −80 °C supplemented with 20% glycerol in the Department of Clinical Microbiology and Infectious Diseases, University of the Witwatersrand, Johannesburg and were previously collected under the ethical clearance number M000402, obtained from the Human Research Ethics Committee, University of the Witwatersrand. For experimental purpose each strain from glycerol stock was recovered on Sabouraud Dextrose (SDA) agar plates at 37 °C for 24 h.
(§2) Minimum Inhibitory Concentration (MIC) and Minimum Fungicidal Concentrations (MFC) of all newly synthesized eugenol-tosylate congeners (ETC-1–ETC-7) against C. albicans strains were determined by broth microdilution assay in accordance with the approved guidelines described by Clinical and Laboratory Standards Institute (CLSI) guidelines M27-A[38]. The test compounds were prepared in 1% DMSO to a stock concentration of 8192 µg/ml. Two-fold dilutions of test compounds (100 µL) were prepared in 96-well flat-bottom microtiter plates, inoculated with 100 µl of inoculum (1 × 10^6 cells/mL) and incubated at 37 °C for 24 hours. In every set of experiment, positive control (fluconazole), negative vehicle control (1% DMSO) and culture control (media and cells only) were included. MIC’s were determined visibly as the lowest concentration of the test compounds that inhibited growth of test organism. To determine MFC, each well without visible growth was sub-cultured onto agar plates. Concentration in the first well with no growth on plate was taken as MFC. […] The experiment was performed in triplicate to validate the results.

[2] = system: Candida albicans 4175; experiment: as above; assay type: cell-based; details: Candida albicans, strain 4175, FLC susceptible
Procedure: as §1, §2

[3] = system: Candida albicans 4324; experiment: as above; assay type: cell-based; details: strain 4324, FLC resistant
Procedure: as §1, §2

[4] = system: Candida albicans 4576; experiment: as above; assay type: cell-based; details: strain 4576, FLC susceptible
Procedure: as §1, §2

[5] = system: Candida albicans 5112; experiment: as above; assay type: cell-based; details: strain 5112, FLC resistant
Procedure: as §1, §2

[6] = system: C. albicans SC5314, C. albicans 4175 and C. albicans 5112; experiment: JC-10 mitochondrial membrane potential assay; assay type: cell-based, Candida albicans; details: 3 h, range over three strains, vs untreated control
Procedure: To study the effect of test compounds on apoptotic markers protoplasts were prepared as described previously, with modifications. Briefly, mid-exponential phase cells were harvested and exposed to various concentrations of test compounds (0.5 × MIC, 1 × MIC and 2×MIC) for 3 h. The cells were then washed twice with protoplast buffer- I (1 M sorbitol, 50 mM tris base, 10 mM MgCl2 and 30 mM DTT) and incubated in the same buffer for 15 minutes at 25 °C, followed by centrifugation at 1500 rpm for 5 minutes. Supernatant was removed and cells were incubated with buffer- II (1 M sorbitol, 50 mM tris base, 10 mM MgCl2 and 1 mM DTT) supplemented with lyticase enzyme (≥1 µg/mL) used to digest the cell wall for 1 h at 25 °C. Buffer- II were removed by centrifugation and then cells were incubated with buffer- III (1 M sorbitol, 50 mM tris base and 10 mM MgCl2) for 20 minutes at room temperature. After the incubation cells were again centrifuged at 1500 rpm for 5 minutes and supernatant was discarded. Protoplasts then finally washed once with PBS and re-suspended in the same for further use. In each washing steps the volume of these protoplast buffers were 5 times to cell volume with pH 7.4.
For the detection of mitochondrial membrane potential changes in cells exposed with different concentrations of active tosylate congeners, the JC-10 mitochondrial membrane potential assay kit–microplate (abcam, Cambridge, UK) was used according to the manufacturer’s instructions. Protoplasts were prepared as described above at a concentration of 1 × 10^6 cells/ml. 90 µl of this suspension was added to each well in 96-well microplate (with black wall and clear bottom) followed by addition of 50 µl/well JC-10 dye-loading solution. […] Fluorescence intensity were monitored at Ex/Em = 490/525 nm and 540/590 nm with a BioTek Synergy HT microplate reader (BioTek Instruments, WA, USA) for ratio analysis. The ratio between aggregate (Em = 525 nm) and monomeric forms (Em = 590 nm) of JC-10, were measured to find the change in mitochondrial membrane potential. […]

C=CCc1ccc(OS(=O)(=O)c2ccc(C(=O)O)cc2)c(OC)c1 [ETC-7, 4-{[2-methoxy-4-(prop-2-en-1-yl)phenoxy]sulfonyl}benzoic acid]
MFC [1]: 8 µg/mL (≈ 23 µM)
MIC ([1]; 37 °C, 24 h): 4 µg/mL (≈ 11.5 µM)
MFC [2]: 2 µg/mL (≈ 5.74 µM)
MIC ([2]; 37 °C, 24 h, read-out: MIC): 1 µg/mL (≈ 2.87 µM)
MFC [3]: 8 µg/mL (≈ 23 µM)
MIC ([3]; 37 °C, 24 h): 4 µg/mL (≈ 11.5 µM)
MFC [4]: 4 µg/mL (≈ 11.5 µM)
MIC ([4]; 37 °C, 24 h): 2 µg/mL (≈ 5.74 µM)
MFC [5]: 16 µg/mL (≈ 45.9 µM)
MIC ([5]; 37 °C, 24 h): 8 µg/mL (≈ 23 µM)
decrease in mitochondrial membrane potential ([6]; 0.5 × MIC): 1.04–1.58 folds
decrease in mitochondrial membrane potential ([6]; 1 × MIC): 1.56–2.62 folds
decrease in mitochondrial membrane potential ([6]; 2 × MIC): 3.55–4.46 folds
